Tests used:
[1] = tested on: Dengue virus type 2; test: Dengue virus infection treated with tetracycline compounds (Example 4): mortality; type: in vivo, BALB/c mice; conditions: for % (survival): 20 mice, 20 mg/kg
[2] = tested on: TNF-α and IL-1β; test: Serum TNF and IL-1 in Dengue infected mice (Example 4); type: in vivo, BALB/c mice; conditions: for level of the cytokines in the serum versus control A2 group: 20 mg/kg twice per day from day -3 until day 8
[3] = tested on: IL-1RA and sTNFrl; test: IL-1RA and sTNFrl in human donor serum after oral antibiotic stimulation; type: in vivo
[4] = tested on: Mononuclear human cells; test: In vitro activation of mononuclear human cells by antibiotics: IL-1RA and sTNFrI production; type: cell-based; conditions: 0.06 mg/ml, activation for 2 hours
[5] = 20 mg/kg orally twice per day from day -3 until day 8
[6] = 20 mg/kg orally twice per day from day -3 until day 8, listed as vibromycine
[7] = day 0, 20 mg/kg orally twice per day from day -3 until day 8
[8] = day 1, 20 mg/kg orally twice per day from day -3 until day 8
[9] = day 3, 20 mg/kg orally twice per day from day -3 until day 8
[10] = day 5, 20 mg/kg orally twice per day from day -3 until day 8
[11] = day 6, 20 mg/kg orally twice per day from day -3 until day 8
[12] = day 7, 20 mg/kg orally twice per day from day -3 until day 8
[13] = day 8, 20 mg/kg orally twice per day from day -3 until day 8
[14] = day 12, 20 mg/kg orally twice per day from day -3 until day 8
[15] = day -1, 20 mg/kg orally twice per day from day -3 until day 8
[16] = 150 mg orally twice a day, blood taken on the second and third day after beginning
[17] = after stimulation, 2 persons, on the 24th hour
[18] = 20 mg/kg intramuscularly twice per day from day -3 until day 8
[19] = 20 mg/kg intramuscularly twice per day from day -3 until day 8, listed as terramycine
[20] = day 0, 20 mg/kg intramuscularly twice per day from day -3 until day 8
[21] = day 1, 20 mg/kg intramuscularly twice per day from day -3 until day 8
[22] = day 3, 20 mg/kg intramuscularly twice per day from day -3 until day 8
[23] = day 5, 20 mg/kg intramuscularly twice per day from day -3 until day 8
[24] = day 6, 20 mg/kg intramuscularly twice per day from day -3 until day 8
[25] = day 7, 20 mg/kg intramuscularly twice per day from day -3 until day 8
[26] = day 8, 20 mg/kg intramuscularly twice per day from day -3 until day 8
[27] = day 12, 20 mg/kg intramuscularly twice per day from day -3 until day 8
[28] = day -1, 20 mg/kg intramuscularly twice per day from day -3 until day 8

## CC1c2cccc(O)c2C(=O)C2=C(O)C3(O)C(=O)C(C(N)=O)=C(O)C(N(C)C)C3C(O)C21 (stereo not shown) [Vybromycine]
[1]; [5]
  m.t.d.: m.t.d. = 6.7 days
  % (survival): % (survival) 20
[1]; [6]
  m.t.d.: 6.7 days
  % (survival): 20%
[1]; [7]
  Survival/total amount: 20/20
[1]; [8]
  Survival/total amount: 20/20
[1]; [9]
  Survival/total amount: 20/20
[1]; [10]
  Survival/total amount: 19/20
[1]; [11]
  Survival/total amount: 15/20
[1]; [12]
  Survival/total amount: 5/20
[1]; [13]
  Survival/total amount: 4/20
[1]; [14]
  Survival/total amount: 4/20
[1]; [15]
  Survival/total amount: 20/20
[2]; 20 mg/kg orally twice per day
  increase of the concentration of TNF: 3 fold
[2]
  level of the cytokines in the serum versus control A2 group: statistically lower
[2]; by day 6 of the infection, 20 mg/kg orally twice per day
  increase of the concentration of IL-1: 12 fold
[2]; [7]
  IL-1: 7.0 pg/mL
  TNF: 18.8 pg/mL
[2]; [8]
  IL-1: 11.6 pg/mL
  TNF: 12.6 pg/mL
[2]; [9]
  IL-1: 60.0 pg/mL
  TNF: 10.8 pg/mL
[2]; [10]
  IL-1: 62.0 pg/mL
  TNF: 16.0 pg/mL
[2]; [11]
  IL-1: 84.4 pg/mL
  TNF: 34.0 pg/mL
[2]; [12]
  IL-1: 64.0 pg/mL
  TNF: 30.6 pg/mL
[2]; [13]
  IL-1: 30.0 pg/mL
  TNF: 26.0 pg/mL
[2]; [14]
  IL-1: 17.8 pg/mL
  TNF: 22.2 pg/mL
[2]; [15]
  IL-1: 7.0 pg/mL
  TNF: 20.4 pg/mL
[3]; [16]
  concentration in the human serum of IL-1RA: 184 pg/mL
  concentration in the human serum of sTNFrl: 950 pg/mL
[3]; [17]
  IL-1RA in the donor serum: 126.8 ± 6.8 pg/mL
  sTNFrl in the donor serum: 970 ± 28.6 pg/mL
[3]; before the stimulation
  IL-1RA in the donor serum: 20 ± 2.2 pg/mL
  sTNFrl in the donor serum: 22 ± 3.4 pg/mL

## CN(C)[C@@H]1C(O)=C(C(N)=O)C(=O)[C@@]2(O)C(O)=C3C(=O)c4c(O)cccc4[C@@](C)(O)[C@H]3[C@H](O)[C@@H]12 [Terramycine]
[1]; [18]
  m.t.d.: m.t.d. = 6.53 days
  % (survival): % (survival) 15
[1]; [19]
  m.t.d.: 6.53 days
  % (survival): 15%
[1]; [20]
  Survival/total amount: 20/20
[1]; [21]
  Survival/total amount: 20/20
[1]; [22]
  Survival/total amount: 20/20
[1]; [23]
  Survival/total amount: 19/20
[1]; [24]
  Survival/total amount: 11/20
[1]; [25]
  Survival/total amount: 6/20
[1]; [26]
  Survival/total amount: 3/20
[1]; [27]
  Survival/total amount: 3/20
[1]; [28]
  Survival/total amount: 20/20
[2]
  level of the cytokines in the serum versus control A2 group: statistically lower
[2]; by day 3 of the disease, stayed until day 7, 20 mg/kg intramuscularly twice per day
  increase of the concentration of IL-1: 16 fold
[2]; by day 6 of the disease, 20 mg/kg intramuscularly twice per day
  increase of the concentration of TNF: 2 fold
[2]; [20]
  IL-1: 7.0 pg/mL
  TNF: 17.0 pg/mL
[2]; [21]
  IL-1: 21.8 pg/mL
  TNF: 15.2 pg/mL
[2]; [22]
  IL-1: 112.0 pg/mL
  TNF: 25.6 pg/mL
[2]; [23]
  IL-1: 84.0 pg/mL
  TNF: 26.0 pg/mL
[2]; [24]
  IL-1: 80.0 pg/mL
  TNF: 36.2 pg/mL
[2]; [25]
  IL-1: 76.0 pg/mL
  TNF: 28.0 pg/mL
[2]; [26]
  IL-1: 42.0 pg/mL
  TNF: 20.0 pg/mL
[2]; [27]
  IL-1: 16.0 pg/mL
  TNF: 18.0 pg/mL
[2]; [28]
  IL-1: 7.2 pg/mL
  TNF: 18.8 pg/mL
[4]; 0 hours
  IL-1RA: 28 + 1.6 pg/ml
  sTNFrI: 18 + 1.4 pg/ml
[4]; 3 hours
  IL-1RA: 93 + 6.2 pg/ml
  sTNFrI: 313 + 10.4 pg/ml
[4]; 6 hours
  IL-1RA: 220 + 9.4 pg/ml
  sTNFrI: 224 + 9.2 pg/ml
[4]; 24 hours
  IL-1RA: 185 + 8.6 pg/ml
  sTNFrI: 264 + 9.6 pg/ml
